We go through nine compounds from patent publication US20030139431A1 (priority 2001, published 2003).

Structures are written as SMILES. Counter-ions that a name gives are not always drawn.

The target in data set [1] is T1, rNPFF1 (Rattus norvegicus, UniProt Q9EP86).
T1 construct: expressed in transfected cells
Description: Binding affinity at cloned recombinant rat NPFF1 receptor.

Data set [2] deals with T1, rNPFF1. Nature of the data set: Functional assay (agonist potency, intrinsic activity) at cloned rat NPFF1 receptor. Type of data set: cell-based. The note with it: for rNPFF1 IA (intrinsic activity): percent of maximum response elicited by neuropeptide FF, rat NPFF1; for EC50: recombinant rat NPFF1. How it is done: (§1) Intrinsic activity of a compound is measured as the percent of maximum response.

In data set [3] the target is T2, rNPFF2 (Rattus norvegicus, UniProt Q9EQD2).
T2 construct: expressed in transfected cells
Description: Binding affinity at cloned recombinant rat NPFF2 receptor.

In data set [4] the target is T2, rNPFF2. Description: Functional assay (agonist potency, intrinsic activity) at cloned rat NPFF2 receptor. It counts as cell-based. The following applies: for rNPFF2 IA (intrinsic activity): percent of maximum response elicited by neuropeptide FF, rat NPFF2; for EC50: recombinant rat NPFF2. How it is done: as §1
Data set [5] has as its system distention induced contractions of the rat bladder. Description: Distension-induced rhythmic contraction (DIRC) model, micturition reflex in anesthetized rats. Type of data set: in vivo. The note with it: i.v.; for duration of inhibition of bladder activity (figure legend): dose not printed in legend. The procedure:
The effects of compounds on the micturition reflex were assessed in the “distension-induced rhythmic contraction” (DIRC) model (also called “volume-induced rhythmic contraction” model) in rats, as described in previous publications (36, 38, 40). This model is widely considered to be predictive for the actions of drugs to treat human urge incontinence (also referred to as detrusor instability or unstable bladder). Examples of drugs that are active in this model which also are used therapeutically in humans include oxybutynin and baclofen (40); imipramine and nortriptyline (37); and nifedipine and terodiline (38).
Female Sprague Dawley rats weighing approximately 300 g were anesthetized with subcutaneous urethane (1.2 g/kg) The trachea was cannulated with PE240 tubing to provide a clear airway throughout the experiment. A midline abdominal incision was made and the left and right ureters were isolated. The ureters were ligated distally (to prevent escape of fluids from the bladder) and cannulated proximally with PE10 tubing. The incision was closed using 4-0 silk sutures, leaving the PE10 lines routed to the exterior for the elimination of urine. The bladder was canulated via the transurethral route using PE50 tubing inserted 2.5 cm beyond the urethral opening. This cannula was secured to the tail using tape and connected to a pressure transducer. To prevent leakage from the bladder, the cannula was tied tightly to the exterior urethral opening using 4-0 silk.
To initiate the micturition reflex, the bladder was first emptied by applying pressure to the lower abdomen, and then filled with normal saline in 100 μL increments (maximum=2 ml) until spontaneous bladder contractions occurred (typically 20-40 mmHg) at a rate of one contraction every 2 to 3 minutes. Once a regular rhythm was established, vehicle (saline) or test compounds were administered i.v. to examine their effects on bladder activity. The effect of a compound which inhibited the micturition reflex was expressed as its “disappearance time”, defined as the time between successive bladder contractions in the presence of the test compound minus the time between contractions before compound administration.

For data set [6], the target named is T3, hNPFF1 (Homo sapiens, UniProt Q9GZQ6).
T3 construct: expressed in transfected cells
Description: Binding affinity at cloned recombinant human NPFF1 receptor.

The target in data set [7] is T4, hNPFF2 (Homo sapiens, UniProt Q9Y5X5).
T4 construct: expressed in transfected cells
Nature of the data set: Binding affinity at cloned recombinant human NPFF2 receptor.

Data set [8] addresses T4, hNPFF2. Nature of the data set: Functional assay (agonist potency, intrinsic activity) at cloned human NPFF2 receptor. It counts as cell-based. The note with it: for hNPFF2 IA (intrinsic activity): percent of maximum response elicited by neuropeptide FF, human NPFF2; for EC50: recombinant human NPFF2. How it is done:
as §1

The target of data set [9] is T3, hNPFF1. Description: Functional assay (agonist potency, intrinsic activity) at cloned human NPFF1 receptor. It counts as cell-based. The following applies: for hNPFF1 IA (intrinsic activity): percent of maximum response elicited by neuropeptide FF, human NPFF1; for EC50: recombinant human NPFF1. How it is done:
as §1

T1 sequence (Q9EP86 whole entry): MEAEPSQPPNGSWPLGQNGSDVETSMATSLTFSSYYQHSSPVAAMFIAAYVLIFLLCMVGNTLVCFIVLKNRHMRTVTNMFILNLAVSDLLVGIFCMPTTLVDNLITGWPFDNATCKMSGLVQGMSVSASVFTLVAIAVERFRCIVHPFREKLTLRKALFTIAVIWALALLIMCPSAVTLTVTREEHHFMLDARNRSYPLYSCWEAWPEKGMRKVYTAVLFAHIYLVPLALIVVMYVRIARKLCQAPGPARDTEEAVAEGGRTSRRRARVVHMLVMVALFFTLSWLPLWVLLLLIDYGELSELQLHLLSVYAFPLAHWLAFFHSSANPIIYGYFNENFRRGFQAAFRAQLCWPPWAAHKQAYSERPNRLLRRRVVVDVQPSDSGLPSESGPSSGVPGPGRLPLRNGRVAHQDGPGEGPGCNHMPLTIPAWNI
T4 sequence (Q9Y5X5 103-522): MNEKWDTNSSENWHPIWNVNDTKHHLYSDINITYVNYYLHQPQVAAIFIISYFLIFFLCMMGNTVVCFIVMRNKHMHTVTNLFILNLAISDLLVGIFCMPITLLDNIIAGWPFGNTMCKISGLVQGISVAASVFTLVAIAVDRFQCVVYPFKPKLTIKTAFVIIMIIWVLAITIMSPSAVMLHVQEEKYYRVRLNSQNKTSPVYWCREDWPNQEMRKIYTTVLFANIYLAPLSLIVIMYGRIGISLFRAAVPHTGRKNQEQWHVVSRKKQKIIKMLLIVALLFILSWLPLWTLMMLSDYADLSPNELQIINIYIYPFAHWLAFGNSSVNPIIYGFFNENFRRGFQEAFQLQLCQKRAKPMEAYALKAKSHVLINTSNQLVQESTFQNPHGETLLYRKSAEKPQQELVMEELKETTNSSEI
T2 sequence (Q9EQD2 whole entry): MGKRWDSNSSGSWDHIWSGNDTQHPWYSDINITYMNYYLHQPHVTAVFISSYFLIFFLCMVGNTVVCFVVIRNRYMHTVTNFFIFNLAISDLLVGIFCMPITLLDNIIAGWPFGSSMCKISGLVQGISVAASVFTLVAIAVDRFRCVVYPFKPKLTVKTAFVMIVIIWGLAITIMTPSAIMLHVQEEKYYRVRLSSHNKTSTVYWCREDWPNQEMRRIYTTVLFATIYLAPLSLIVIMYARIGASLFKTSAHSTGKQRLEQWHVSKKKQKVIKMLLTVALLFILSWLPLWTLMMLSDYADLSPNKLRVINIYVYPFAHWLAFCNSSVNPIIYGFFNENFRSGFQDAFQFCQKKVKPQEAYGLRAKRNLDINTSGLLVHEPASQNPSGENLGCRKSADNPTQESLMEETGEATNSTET
T3 sequence (Q9GZQ6 whole entry): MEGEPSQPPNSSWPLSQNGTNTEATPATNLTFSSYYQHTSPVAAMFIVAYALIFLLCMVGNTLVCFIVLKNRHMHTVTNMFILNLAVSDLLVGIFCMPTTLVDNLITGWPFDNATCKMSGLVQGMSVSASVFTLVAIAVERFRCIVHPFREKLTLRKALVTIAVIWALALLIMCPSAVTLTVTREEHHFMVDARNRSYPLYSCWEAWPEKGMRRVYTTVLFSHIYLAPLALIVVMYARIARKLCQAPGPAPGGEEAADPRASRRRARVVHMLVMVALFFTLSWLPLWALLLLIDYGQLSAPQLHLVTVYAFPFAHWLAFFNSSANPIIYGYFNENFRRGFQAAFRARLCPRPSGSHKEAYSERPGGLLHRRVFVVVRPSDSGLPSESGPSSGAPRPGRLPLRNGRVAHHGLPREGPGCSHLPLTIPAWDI

For `Cc1nc(NC(=N)N)nc2cc(OCc3ccccc3)ccc12` (as salt: salt) [Compound 1006, N-[7-(benzyloxy)-4-methyl-2-quinazolinyl]guanidine], the melting point was 215 to 217 °C (dec.).

Turning to `Cc1cc2nc(NC(=N)N)nc(C)c2cc1O` (as salt: salt) [Compound 1017, N-(6-hydroxy-4,7-dimethyl-2-quinazolinyl)guanidine], the melting point was 246 to 248 °C (dec.).

As for `Cc1nc(NC(=N)N)nc2cc(C(C)(C)C)ccc12` [Compound 1022, N-[7-(tert-butyl)-4-methyl-2-quinazolinyl]guanidine], the melting point is 195 to 198 °C (dec.). The Ki at rNPFF1 [1] was 126 nM. Also, on rNPFF1 [2], the “rNPFF1 IA (intrinsic activity)” value stood at 19% NPFF and the EC50 came out at 3160 nM. Besides, the Ki on rNPFF2 [3] amounted to 602 nM. For the same compound, at rNPFF2 [4], the “rNPFF2 IA (intrinsic activity)” value stood at 81% NPFF and the EC50 came to 190 nM.

As to `Cc1nc(NC(=N)N)nc2cc3c(cc12)CCC3` [Compound 1038, N-(4-methyl-7,8-dihydro-6H-cyclopenta[g]quinazolin-2-yl)guanidine], the melting point is 295 to 298 °C (dec.). For the same compound, the Ki on rNPFF1 [1] is 95 nM. Also, at rNPFF1 [2], the “rNPFF1 IA (intrinsic activity)” value is “Inactive” and the half-maximal effective concentration (EC50) was more than 10000 nM. For the same compound, the inhibition constant Ki at rNPFF2 [3] was 602 nM. For the same compound, at rNPFF2 [4], the “rNPFF2 IA (intrinsic activity)” value stood at 74% NPFF and the EC50 was determined as 48 nM.

Consider `Cc1cc(NC(=N)N)nc2ccc(Cl)cc12` [Compound 4005, N-(6-chloro-4-methyl-2-quinolinyl)guanidine], for which the Ki on rNPFF1 [1] came out at 25 nM; on rNPFF2 [3] it was 282 nM; at hNPFF1 [6] it was 24 nM; on hNPFF2 [7], 123 nM. Besides, the “rNPFF1 IA (intrinsic activity)” value at rNPFF1 [2] is given as “Inactive”. For the same compound, the EC50 is more than 10000 nM on rNPFF1 [2] and 389 nM at rNPFF2 [4]. In data set [5] (1 mg/kg), this compound had a disappearance time of 35 min. Moreover, in data set [5] (1 mg/kg), the “inhibition of distention induced contractions of the rat bladder” value is reported as “complete inhibition”. For the same compound, the “duration of inhibition of bladder activity (figure legend)” value in data set [5] amounted to 35 min. In addition, the “rNPFF2 IA (intrinsic activity)” value on rNPFF2 [4] is on record as 61% NPFF.

For `Cc1ccc2c(C)cc(NC(=N)N)nc2c1` [Compound 4006, N-(4,7-dimethyl-2-quinolinyl)guanidine], the Ki at rNPFF1 [1] stood at 7 nM; at rNPFF2 [3], 185 nM; on hNPFF1 [6], 13 nM; on hNPFF2 [7] it was 91 nM. Also, the “rNPFF1 IA (intrinsic activity)” value on rNPFF1 [2] is reported as “Inactive”. Besides, the concentration giving a half-maximal response (EC50) on rNPFF1 [2] is more than 10000 nM; at hNPFF2 [8], more than 10000 nM; at rNPFF2 [4], 269 nM; at hNPFF1 [9] it was more than 10000 nM. The disappearance time in [5] (3 mg/kg) amounted to 12 min. Besides, the “inhibition of distention induced contractions of the rat bladder” value in data set [5] (3 mg/kg) is reported as “complete inhibition”. The “duration of inhibition of bladder activity (figure legend)” value in [5] was 12 min. The “hNPFF2 IA (intrinsic activity)” value at hNPFF2 [8] is “Inactive”. The “rNPFF2 IA (intrinsic activity)” value at rNPFF2 [4] is given as 32% NPFF. Further, at hNPFF1 [9], the “hNPFF1 IA (intrinsic activity)” value is listed as “Inactive”.

As for `CCCCCc1ccc2nc(NC(=N)N)cc(C)c2c1` [Compound 5002, N-(4-methyl-6-pentyl-2-quinolinyl)guanidine], the inhibition constant (Ki) on rNPFF1 [1] is 30 nM; on rNPFF2 [3], 569 nM; on hNPFF1 [6], 40 nM; at hNPFF2 [7], 460 nM. Besides, the “rNPFF1 IA (intrinsic activity)” value on rNPFF1 [2] came out at 41% NPFF. Further, the EC50 at rNPFF1 [2] is 157 nM; at hNPFF2 [8] it was 1710 nM; at rNPFF2 [4], 259 nM; at hNPFF1 [9] it was more than 10000 nM. On hNPFF2 [8], the “hNPFF2 IA (intrinsic activity)” value was 75% NPFF. The “rNPFF2 IA (intrinsic activity)” value on rNPFF2 [4] is given as 90% NPFF. In addition, at hNPFF1 [9], the “hNPFF1 IA (intrinsic activity)” value is on record as “Inactive”.

On to `CCCCCCc1ccc2nc(NC(=N)N)cc(C)c2c1` [Compound 5003, N-(6-hexyl-4-methyl-2-quinolinyl)guanidine], for which the inhibitory constant (Ki) on rNPFF1 [1] was 532 nM; at rNPFF2 [3], 4420 nM; at hNPFF1 [6], 152 nM; on hNPFF2 [7], 1170 nM. Also, the “rNPFF1 IA (intrinsic activity)” value on rNPFF1 [2] came out at 27% NPFF. In addition, the concentration for a half-maximal effect (EC50) was 440 nM at rNPFF1 [2], 3160 nM at hNPFF2 [8], 9990 nM at rNPFF2 [4] and more than 10000 nM at hNPFF1 [9]. The “hNPFF2 IA (intrinsic activity)” value at hNPFF2 [8] was 45% NPFF. Besides, on rNPFF2 [4], the “rNPFF2 IA (intrinsic activity)” value amounted to 57% NPFF. Also, the “hNPFF1 IA (intrinsic activity)” value on hNPFF1 [9] was “Inactive”.

Regarding `Cc1cc(NC(=N)N)nc2ccccc12` [Compound 6001, N-(4-methyl-2-quinolinyl)guanidine], the Ki at rNPFF1 [1] was determined as 11 nM; at rNPFF2 [3], 433 nM; on hNPFF1 [6] it was 23 nM; at hNPFF2 [7], 374 nM. On rNPFF1 [2], the “rNPFF1 IA (intrinsic activity)” value is “Inactive”. For the same compound, the concentration giving a half-maximal response (EC50) on rNPFF1 [2], at hNPFF2 [8], at rNPFF2 [4] and at hNPFF1 [9] was more than 10000 nM throughout. In addition, the “hNPFF2 IA (intrinsic activity)” value at hNPFF2 [8] is “Inactive”. For the same compound, on rNPFF2 [4], the “rNPFF2 IA (intrinsic activity)” value is given as “Inactive”. Further, the “hNPFF1 IA (intrinsic activity)” value at hNPFF1 [9] is recorded as “Inactive”.

By melting point is commonly meant the temperature, or range, at which the solid turns liquid. By Ki is commonly meant the equilibrium dissociation constant of an inhibitor or competing ligand from its target. By EC50 is commonly meant the concentration at which the effect is half-maximal.
